From the supplement of paper PMC10627819

Key:
Assay in all cases: fitness (endpoint OD595 vs no drug) (fraction); higher = more growth
S. aureus Newman = details: one replicate, main component drawn
How it was run: (§1)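 Fitness expresses the optical density reached at the stationary-phase transition as a fraction of the robust mean of no-drug control wells. It is capped at 1. Measurements were OD595 every 30 min for 14 h at 37 °C after inoculation of 384-well plates at OD595 0.01 (30 µl, or 55 µl for S. pneumoniae), minus the first reading.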

B. subtilis 168 = system: B. subtilis 168
How it was run: as §1

S. pneumoniae D39V = system: S. pneumoniae D39V
How it was run: as §1
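Also: OD595 on entry to stationary phase over no-drug wells; at most 1.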

With `O=C(O)[C@H]1/C(=C/CO)O[C@@H]2CC(=O)N21` [Clavulanic acid] + CCCCCCCCCC(=O)N[C@@H]1[C@H]([C@@H]([C@H](O[C@H]1OC2=C3C=C4C=C2OC5=C(C=C(C=C5)[C@H]([C@H]6C(=O)N[C@@H](C7=C(C(=CC(=C7)O)OC8[C@H]([C@H]([C@@H]([C@H](O8)CO)O)O)O)C9=C(C=CC(=C9)[C@H](C(=O)N6)NC(=O)[C@@H]4NC(=O)[C@@H]1C2=CC(=CC(=C2)OC2=C(C=CC(=C2)[C@H](C(=O)N[C@H](CC2=CC(=C(O3)C=C2)Cl)C(=O)N1)N)O)O)O)C(=O)O)O[C@H]1[C@@H]([C@H]([C@@H]([C@H](O1)CO)O)O)NC(=O)C)Cl)CO)O)O [Teicoplanin] the fitness (S. aureus Newman; first compound 0.03125 µg/mL, partner 0.1562 µg/mL) was 0.992, the fitness (S. aureus Newman; first compound 0.03125 µg/mL, partner 0.3125 µg/mL) was 0.924 and the fitness (S. aureus Newman; first compound 0.03125 µg/mL, partner 0.625 µg/mL) was ≥ 1. The fitness (S. aureus Newman; first compound 0.0625 µg/mL, partner 0.1562 µg/mL) was 0.966, the fitness (S. aureus Newman; first compound 0.0625 µg/mL, partner 0.3125 µg/mL) was ≥ 1 and the fitness (S. aureus Newman; first compound 0.0625 µg/mL, partner 0.625 µg/mL) was ≥ 1. For the same compound, the fitness (S. aureus Newman; first compound 0.125 µg/mL, partner 0.1562 µg/mL) was 0.916, the fitness (S. aureus Newman; first compound 0.125 µg/mL, partner 0.3125 µg/mL) was 0.894 and the fitness (S. aureus Newman; first compound 0.125 µg/mL, partner 0.625 µg/mL) was 0.967.

`O=C(O)[C@H]1/C(=C/CO)O[C@@H]2CC(=O)N21` [Clavulanic acid] + CCC[C@@H]1C[C@@H](C(=O)N[C@@H]([C@H]2O[C@H](SC)[C@H](O)[C@@H](O)[C@H]2O)[C@@H](C)O)N(C)C1 [Lincomycin] was tested, and the fitness (B. subtilis 168; first compound 1.5 µg/mL, partner 0.1 µg/mL) was 0.91, the fitness (B. subtilis 168; first compound 1.5 µg/mL, partner 0.2 µg/mL) was 0.868 and the fitness (B. subtilis 168; first compound 1.5 µg/mL, partner 0.4 µg/mL) was 0.892. For the same compound, the fitness (B. subtilis 168; first compound 1.5 µg/mL, partner 0.8 µg/mL, one replicate) was 0.832, the fitness (B. subtilis 168; first compound 1.5 µg/mL, partner 1.6 µg/mL, one replicate) was 0.913 and the fitness (B. subtilis 168; first compound 3 µg/mL, partner 0.1 µg/mL) was 0.835. The fitness (B. subtilis 168; first compound 3 µg/mL, partner 0.2 µg/mL) was 0.837, the fitness (B. subtilis 168; first compound 3 µg/mL, partner 0.4 µg/mL) was 0.838 and the fitness (B. subtilis 168; first compound 3 µg/mL, partner 0.8 µg/mL, one replicate) was 0.761. For the same compound, the fitness (B. subtilis 168; first compound 3 µg/mL, partner 1.6 µg/mL, one replicate) was 0.802, the fitness (B. subtilis 168; first compound 6 µg/mL, partner 0.1 µg/mL) was 0.822 and the fitness (B. subtilis 168; first compound 6 µg/mL, partner 0.2 µg/mL) was 0.686. It also gave a fitness (B. subtilis 168; first compound 6 µg/mL, partner 0.4 µg/mL) of 0.704, a fitness (B. subtilis 168; first compound 6 µg/mL, partner 0.8 µg/mL, one replicate) of 0.729 and a fitness (B. subtilis 168; first compound 6 µg/mL, partner 1.6 µg/mL, one replicate) of 0.708. The fitness (S. pneumoniae D39V; first compound 0.5 µg/mL, partner 0.2 µg/mL) was 0.571, the fitness (S. pneumoniae D39V; first compound 0.5 µg/mL, partner 0.215 µg/mL) was 0.828 and the fitness (S. pneumoniae D39V; first compound 0.5 µg/mL, partner 0.4 µg/mL) was 0.326. The fitness (S. pneumoniae D39V; first compound 0.5 µg/mL, partner 0.43 µg/mL) was 0.726, the fitness (S. pneumoniae D39V; first compound 0.5 µg/mL, partner 0.8 µg/mL) was 0.0312 and the fitness (S. pneumoniae D39V; first compound 0.5 µg/mL, partner 0.86 µg/mL) was 0.39. It also gave a fitness (S. pneumoniae D39V; first compound 1 µg/mL, partner 0.2 µg/mL) of 0.591, a fitness (S. pneumoniae D39V; first compound 1 µg/mL, partner 0.215 µg/mL) of 0.809 and a fitness (S. pneumoniae D39V; first compound 1 µg/mL, partner 0.4 µg/mL) of 0.354. The fitness (S. pneumoniae D39V; first compound 1 µg/mL, partner 0.43 µg/mL) was 0.687, the fitness (S. pneumoniae D39V; first compound 1 µg/mL, partner 0.8 µg/mL) was 0.186 and the fitness (S. pneumoniae D39V; first compound 1 µg/mL, partner 0.86 µg/mL) was 0.332. The fitness (S. pneumoniae D39V; first compound 2 µg/mL, partner 0.2 µg/mL) was 0.406, the fitness (S. pneumoniae D39V; first compound 2 µg/mL, partner 0.215 µg/mL) was 0.726 and the fitness (S. pneumoniae D39V; first compound 2 µg/mL, partner 0.4 µg/mL) was 0.258. For the same compound, the fitness (S. pneumoniae D39V; first compound 2 µg/mL, partner 0.43 µg/mL) was 0.606, the fitness (S. pneumoniae D39V; first compound 2 µg/mL, partner 0.8 µg/mL) was 0.045 and the fitness (S. pneumoniae D39V; first compound 2 µg/mL, partner 0.86 µg/mL) was 0.21.

`O=C(O)[C@H]1/C(=C/CO)O[C@@H]2CC(=O)N21` [Clavulanic acid] + CC[C@H]1OC(=O)[C@H](C)[C@@H](O[C@H]2C[C@@](C)(OC)[C@@H](O)[C@H](C)O2)[C@H](C)[C@@H](O[C@@H]2O[C@H](C)C[C@H](N(C)C)[C@H]2O)[C@](C)(OC)C[C@@H](C)C(=O)[C@H](C)[C@@H](O)[C@]1(C)O [Clarithromycin] showed a fitness (S. pneumoniae D39V; first compound 0.5 µg/mL, partner 0.007812 µg/mL, one replicate) of 0.855, a fitness (S. pneumoniae D39V; first compound 0.5 µg/mL, partner 0.01562 µg/mL, one replicate) of 0.829 and a fitness (S. pneumoniae D39V; first compound 0.5 µg/mL, partner 0.03125 µg/mL, one replicate) of 0.597. It also gave a fitness (S. pneumoniae D39V; first compound 0.5 µg/mL, partner 0.0625 µg/mL) of 0.486, a fitness (S. pneumoniae D39V; first compound 0.5 µg/mL, partner 0.07 µg/mL) of 0.103 and a fitness (S. pneumoniae D39V; first compound 0.5 µg/mL, partner 0.125 µg/mL) of 0.232. For the same compound, the fitness (S. pneumoniae D39V; first compound 0.5 µg/mL, partner 0.14 µg/mL) was 0.0628, the fitness (S. pneumoniae D39V; first compound 0.5 µg/mL, partner 0.25 µg/mL) was 0.0756 and the fitness (S. pneumoniae D39V; first compound 0.5 µg/mL, partner 0.28 µg/mL) was 0.0401. For the same compound, the fitness (S. pneumoniae D39V; first compound 1 µg/mL, partner 0.007812 µg/mL, one replicate) was 0.828, the fitness (S. pneumoniae D39V; first compound 1 µg/mL, partner 0.01562 µg/mL, one replicate) was 0.792 and the fitness (S. pneumoniae D39V; first compound 1 µg/mL, partner 0.03125 µg/mL, one replicate) was 0.574. For the same compound, the fitness (S. pneumoniae D39V; first compound 1 µg/mL, partner 0.0625 µg/mL) was 0.541, the fitness (S. pneumoniae D39V; first compound 1 µg/mL, partner 0.07 µg/mL) was 0.088 and the fitness (S. pneumoniae D39V; first compound 1 µg/mL, partner 0.125 µg/mL) was 0.361. The fitness (S. pneumoniae D39V; first compound 1 µg/mL, partner 0.14 µg/mL) was 0.0781, the fitness (S. pneumoniae D39V; first compound 1 µg/mL, partner 0.25 µg/mL) was 0.209 and the fitness (S. pneumoniae D39V; first compound 1 µg/mL, partner 0.28 µg/mL) was 0.0556. It also gave a fitness (S. pneumoniae D39V; first compound 2 µg/mL, partner 0.007812 µg/mL, one replicate) of 0.801, a fitness (S. pneumoniae D39V; first compound 2 µg/mL, partner 0.01562 µg/mL, one replicate) of 0.769 and a fitness (S. pneumoniae D39V; first compound 2 µg/mL, partner 0.03125 µg/mL, one replicate) of 0.509. For the same compound, the fitness (S. pneumoniae D39V; first compound 2 µg/mL, partner 0.0625 µg/mL) was 0.325, the fitness (S. pneumoniae D39V; first compound 2 µg/mL, partner 0.07 µg/mL) was 0.0584 and the fitness (S. pneumoniae D39V; first compound 2 µg/mL, partner 0.125 µg/mL) was 0.191. The fitness (S. pneumoniae D39V; first compound 2 µg/mL, partner 0.14 µg/mL) was 0.062, the fitness (S. pneumoniae D39V; first compound 2 µg/mL, partner 0.25 µg/mL) was 0.0711 and the fitness (S. pneumoniae D39V; first compound 2 µg/mL, partner 0.28 µg/mL) was 0.0369.
